# Entries after “also recorded” stand apart in the source; their conditions may differ. Like-named read-outs stand apart in the source and are kept apart here.
# Tests used:
# Format in all cases: cell-based, human
# [1] = tested on: platelets from a patient with Scott syndrome; assay: Prothrombinase activity of platelets from a patient with Scott syndrome; settings: valinomycin 3 μmol/L; collagen plus thrombin stimulation; FIG. 5
# Experimental: For experiments with platelets from a patient with Scott syndrome, freshly obtained citrated blood from the patient and a control was shipped by airmail and platelets were isolated and used for experiments immediately upon arrival (approx 24 hours after blood donation).
# (§1) Platelet procoagulant activity was assayed as described in more detail elsewhere.^9 Briefly, after activation of 10^7 platelets/mL with collagen (10 μg/mL) and thrombin (4 nmol/L) for 10 minutes, samples were taken and diluted to 10^6 platelets/mL in HEPES buffer containing 3 mmol/L CaCl2 and 0.5 mg/mL BSA. The samples were incubated with 0.2 nmol/L factor Xa and 2 nmol/L factor Va for 1 minute at 37° C. Thrombin formation was initiated by addition of 1 μmol/L prothrombin and arrested after 2 minutes by addition of 10 mmol/L EDTA. Thrombin was measured using the chromogenic substrate S2238.
# In FIG. 5, the effect of valinomycin on collagen plus thrombin induced procoagulant activity of platelets from a patient with Scott syndrome is shown. Prothrombinase activities, expressed as nmol/L thrombin formed per minute, were determined after activation with collagen (10 μg/ml) plus thrombin (4 nmol/L) in the absence (black bars) and presence (hatched bars) of valinomycin (3 μmol/L). Data are mean values±1 S.D. (n=6).
# [2] = tested on: collagen plus thrombin activated platelets; assay: Measurement of [Ca2+]i of Fura-2-loaded platelets in suspension
# Experimental: (§2) Platelet isolation was performed as described.^10 Briefly, 10 milliliters (mL) blood was collected in 2 mL anticoagulant ACD (80 mmol/L trisodium citrate, 52 mmol/L citric acid and 180 mmol/L glucose). Platelet rich plasma was obtained by centrifuging whole blood for 15 minutes at 200 g. Platelets were spun down at 11,500× gravity for 2 minutes using a microfuge. The platelet pellet was resuspended and washed twice with 10 mmol/L HEPES, 137 mmol/L NaCl, 2.7 mmol/L KCl, 2 mmol/L MgCl2, 5 mmol/L glucose and 0.5 mg/mL BSA, adjusted at pH 6.6); before each centrifugation step, 100 μL ACD was added to each mL resuspended platelets. Finally, platelets were resuspended in HEPES buffer at pH 7.4. Platelet count was adjusted at 2×10^8 platelets/mL. For measurement of the intracellular Ca^2+ concentration ([Ca^2+]i), platelets were loaded with Fura-2 (3 μmol/L) during 45 minutes at 37° C., prior to isolation.
# Platelets (5×10^7/mL) were incubated with K^+ channel inhibitors for 5 minutes, followed by the addition of tirofiban (5 μg/mL) and Ca^2+ (3 mmol/L) and incubated for an additional 5 minutes under stirring conditions. Collagen (10 μg/mL) plus thrombin (5 nmol/L) were then added simultaneously. Changes in [Ca^2+]i of Fura-2-loaded platelets were measured under continuous stirring by dual excitation fluorometry in an SLM-Aminco 8100 spectrofluorimeter (SLM Instruments). Ratio values of fluorescence at 340 and 380 nm excitation, obtained 5 minutes after activation with collagen plus thrombin, were converted to levels of [Ca^2+]i as described.^14 Experiments were performed in triplicate at 37° C.
# [3] = tested on: collagen and thrombin activated platelets; assay: cells
# Experimental: as §2
# Platelet activation was performed at 37° C. at a concentration of 10^7 platelets/mL in a volume of 0.5 mL under continuous stirring in the presence of 3 mmol/L CaCl2. Platelet agonists used were thrombin (5 nmol/L) plus collagen (10 μg/mL) or ionomycin (1 μmol/L). The effect of different inhibitors was studied by pre-treatment of platelets with the various agents for 30 minutes before starting the activation procedure. For the effects of high extracellular [K^+], platelet suspensions were diluted 20-fold to a concentration of […] in a modified HEPES buffer, referred to as HEPES/KCl buffer (10 mmol/L HEPES, 19.7 mmol/L NaCl, 120 mmol/L KCl, 2 mmol/L MgCl2, 5 mmol/L glucose and 0.5 mg/mL BSA, pH 7.4), activated and assayed for thrombin generation as described before. In some experiments, HEPES buffer was used in which 120 mmol/L NaCl was replaced by 120 mmol/L choline chloride (10 mmol/L HEPES, 17 mmol/L NaCl, 120 mmol/L choline chloride, 2.7 mmol/L KCl, 2 mmol/L MgCl2, 5 mmol/L glucose and 0.5 mg/mL BSA, pH 7.4), referred to as HEPES/Choline buffer.
# as §1
# FIG. 2. illustrates the effect of potassium channel inhibitors on collagen plus thrombin induced platelet procoagulant activity. Platelets at 10^7 ml^−1 were preincubated with various inhibitors for 30 minutes followed by activation with collagen (10 μg/ml) plus thrombin (4 nmol/L) for 10 minutes. Samples from these incubations were diluted 10-fold in HEPES buffer containing 3 mmol/L CaCl2 and subsequently analyzed for prothrombinase activity (A) or percentage of annexin-positive cells (B) as described in the Materials and Methods section above. Valinomycin was added 5 minutes prior to activation of the platelets (to avoid long term effects of this ionophore). Black bars: absence of valinomycin; hatched bars: presence of valinomycin. […] Student's t-test was used to compare data in the presence and absence of valinomycin.
# [4] = tested on: collagen plus thrombin activated platelets; assay: Flow cytometry, binding of FITC-conjugated annexin A5 (PS exposure)
# Experimental: as §2
# Platelet activation was performed at 37° C. at a concentration of 10^7 platelets/mL in a volume of 0.5 mL under continuous stirring in the presence of 3 mmol/L CaCl2. Platelet agonists used were thrombin (5 nmol/L) plus collagen (10 μg/mL) or ionomycin (1 μmol/L). […]
# Samples for flow cytometry were taken simultaneously with samples for the prothrombinase assay from the platelet incubations after 10 minutes activation. To measure PS exposure, samples were diluted 10-fold in HEPES buffer containing 3 mmol/L CaCl2 and incubated with FITC-conjugated Annexin A5 (final concentration 10 nmol/L) for 5 minutes and analyzed for light scatter and fluorescence by a Coulter Epics XL-MLC™ flow cytometer. Light scatter and fluorescence channels were set at logarithmic gain. Scatter parameters and fluorescence intensities were obtained from 10,000 platelets and analyzed off-line using WinMDI version 2.8 software (http://facs.scripps.edu/software.html). Ionomycin activated platelets were used to set a marker for fluorescence intensity of annexin-positive platelets to measure the percentage of annexin-positive platelets after the various incubation procedures. […]
# [5] = tested on: platelets, collagen plus thrombin induced release of ATP; assay: Platelet release reaction (ATP bioluminescence)
# Experimental: (§3) Aggregation was measured at 37° C. in 450 μL samples of a platelet suspension of 2×10^8/mL using an automated model 400 Chronolog aggregometer (Chronolog Corporation, Chicago, USA). After stirring for 2 minutes at 300 rpm, CaCl2 (3 mmol/L) was added, 1 minute later followed by simultaneous addition of 10 μg/mL collagen and 4 nmol/L thrombin. The resulting aggregation was recorded for 5 minutes after which 50 μL ATP-reagent (Boehringer Mannheim ATP Bioluminescence Assay Kit HS II) was added to quantify the release reaction.
# [6] = tested on: platelets, collagen plus thrombin induced aggregation; assay: Platelet aggregation (Chronolog aggregometer)
# Experimental: as §3
# [7] = tested on: platelets, tetracaine-induced PS exposure; assay: Tetracaine-induced prothrombinase activity
# [8] = tested on: platelets, tetracaine-induced PS exposure; assay: Tetracaine-induced binding of FITC-conjugated annexin A5
# [9] = collagen 10 μg/mL plus thrombin 4 nmol/L, concentration as given in row
compound,measurement,setting,value
CC(C)[C@@H]1NC(=O)[C@H](C)OC(=O)[C@@H](C(C)C)NC(=O)[C@@H](C(C)C)OC(=O)[C@H](C(C)C)NC(=O)[C@H](C)OC(=O)[C@@H](C(C)C)NC(=O)[C@@H](C(C)C)OC(=O)[C@H](C(C)C)NC(=O)[C@H](C)OC(=O)[C@@H](C(C)C)NC(=O)[C@@H](C(C)C)OC1=O [valinomycin],"procoagulant response (prothrombinase activity) of Scott syndrome platelets, in words",[1],significant increase; also recorded: partially restored
same,Δ[Ca2+]i with valinomycin in clotrimazol-preincubated platelets,"[2]; clotrimazol 10 μmol/L plus valinomycin, 5 minutes after collagen plus thrombin",326 ± 34 nmol/L
same,reversal of the inhibition of the procoagulant response by high extracellular [K+],"[3]; addition of valinomycin, data not shown",not reversed
same,reversal of the inhibitory effect of quinine on procoagulant response,"[3]; valinomycin 3 μmol/L, HEPES buffer, FIGS. 2A and B",partially abolished
same,reversal of the inhibition of procoagulant response caused by clotrimazol and charybdotoxin,"[3]; valinomycin 3 μmol/L, HEPES buffer, FIGS. 2A and B (prothrombinase and annexin)",completely reversed
same,procoagulant response of platelets in the absence of a stimulus,[3]; valinomycin itself,did not cause a procoagulant response
same,reversal of the inhibition by clotrimazol and charybdotoxin in HEPES/Choline,"[4]; presence of valinomycin, HEPES/Choline buffer, annexin A5 binding, FIG. 4",virtually annihilated
"C=C[C@H]1CN2CC[C@H]1C[C@H]2[C@H](O)c1ccnc2ccc(OC)cc12.Cl [quinine, quinine hydrochloride]",Release (ATP) % of control (±S.D.),[5]; [9],90.1 ± 4.1 % of control
same,"effect on the release, in words",[5]; collagen plus thrombin induced,only a minor effect
same,Aggregation % of control (±S.D.),[6]; [9],40.0 ± 3.0 % of control
same,inhibition of the aggregation,[6]; collagen plus thrombin induced,approximately 60%
"iberiotoxin (QFTDVDCSVSKECWSVCKDLFGVDRGKCMGKKCRCYQ; UniProt P24663 1-37, looked up)","effect on collagen plus thrombin-induced procoagulant (prothrombinase) activity, in words","[3]; iberiotoxin 200 nmol/L, apamin 500 nmol/L",without effect
"Clc1ccccc1C(c1ccccc1)(c1ccccc1)n1ccnc1 [clotrimazol, 1-[(2-chlorophenyl)diphenylmethyl]-1H-imidazole]",Release (ATP) % of control (±S.D.),[5],91.3 ± 5.0 % of control
same,inhibition of tetracaine-induced prothrombinase activity,[7],neither clotrimazol nor charybdotoxin could inhibit
same,Δ[Ca2+]i,"[2]; 5 minutes after stimulation with collagen plus thrombin, clotrimazol 10 μmol/L, charybdotoxin 20 nmol/L, control 364±18",275 ± 10 nmol/L
same,reduction of the increase in [Ca2+]i versus absence of inhibitors,[2]; clotrimazol 10 μmol/L,24%
same,inhibition at 10 µM,"[3]; Homo sapiens, Platelet, read-out: inhibition of the prothrombinase activity of collagen and thrombin activated platelets",46 ± 13%
same,extent of annexin binding (mean fluorescence intensity) of the residual PS positive platelets,[4],remains at the same level
same,number of PS-exposing (annexin-positive) platelets,[4],decreased
same,inhibition of tetracaine-induced binding of FITC-conjugated annexin A5,[8],neither clotrimazol nor charybdotoxin could inhibit
same,Aggregation % of control (±S.D.),[6],90.0 ± 2.8 % of control
same,"effect on aggregation or release, in words","[6]; collagen plus thrombin induced, aggregation and ATP release together","Neither high extracellular [K^+], nor the presence of clotrimazol or charybdotoxin showed an appreciable effect"

# Source: US20090186810A1, “POTASSIUM CHANNEL MODULATORS AND PLATELET PROCOAGULANT ACTIVITY” (priority 2006, published 2009)
